Measurements as given in patent publication US20250040543A1, “Preservative Composition” (ARXADA AG, priority 2021, published 2025).

Assays:
Type in all cases: cell-based
[1] = tested on: Pseudomonas aeruginosa ATCC 9027; experiment: Preservation efficacy test in sterile distilled water, drop plate; settings: 7 days
Procedure: In the following example, the following test organisms were used: • Pseudomonas aeruginosa ATCC 9027 • Aspergillus brasiliensis ATCC 16404 [table] Bacteria were harvested and prepared in diluent (sterile distilled water) to obtain a final concentration of 1.0×10^6 to 5.0×10^6 cfu/ml. [table] […] Each sample was inoculated at t=0 with a known concentration of micro-organism. Each inoculated sample was then mixed until a homogenous mixture was obtained. […] The solution was left for 15 minutes. Subsequent dilutions were prepared by serial dilution of 0.1 ml into 0.9 ml of neutralising broth. Bacteria were serially diluted to 10^−4, Fungi were serially diluted to 10^−3. Each serial dilution was thoroughly mixed and 25 μl drops were aliquoted onto the surface of pre-prepared agar plates. Plates were prepared in sextupicate for each sample dilution. The agar plates were allowed to dry, then inverted and incubated under conditions appropriate for the test microorganisms. CFU/ml was calculated taking into account dilution factors. […] The lower and upper limits for drop plating were only employed on the highest and lowest dilution factor plates.

[2] = tested on: Aspergillus brasiliensis ATCC 16404; experiment: as above; settings: 7 days
Procedure: In the following example, the following test organisms were used: • Pseudomonas aeruginosa ATCC 9027 • Aspergillus brasiliensis ATCC 16404 [table] Mould strain spores were harvested (sterile distilled water+0.05% polysorbate 80) and treated to remove fungal hyphae. Mould strain spores were prepared in diluent (sterile distilled water) to obtain a final concentration of […]. [table] […] Each sample was inoculated at t=0 with a known concentration of micro-organism. Each inoculated sample was then mixed until a homogenous mixture was obtained. […] The solution was left for 15 minutes. Subsequent dilutions were prepared by serial dilution of 0.1 ml into 0.9 ml of neutralising broth. Bacteria were serially diluted to 10^−4, Fungi were serially diluted to 10^−3. Each serial dilution was thoroughly mixed and 25 μl drops were aliquoted onto the surface of pre-prepared agar plates. Plates were prepared in sextupicate for each sample dilution. The agar plates were allowed to dry, then inverted and incubated under conditions appropriate for the test microorganisms. CFU/ml was calculated taking into account dilution factors. […] The lower and upper limits for drop plating were only employed on the highest and lowest dilution factor plates.

Escherichia coli = experiment: MIC and Synergy Index (Kull) of two-component compositions
Procedure: (§1) A wide range of concentrations were tested against Pseudomonas aeruginosa, Staphylococcus aureus, Escherichia coli, and Candda albicans.
(§2) The lowest concentration of each mixture or single compound which prevents an observable level of growth was determined to be the minimum inhibitory concentration (MIC) value.
(§3) Serial dilutions of each mixture or single compound were prepared. Micro-organisms were inoculated into media: Nutrient Broth (bacteria) or Malt Extract Broth (yeast). The final concentrations of micro-organisms in media was approximately 10^5-6 CFU/ml. The inoculated media was introduced to each of the serial dilutions at a 1:1 ratio, and incubated at 30±1° C. for 24-48 hours.
(§4) The MICs for each mixture was compared with the MIC of each single compound alone.
(§5) Synergy was determined using the Kull equation (F. C. Kull et. al., “Mixtures of Quaternary Ammonium Compounds and Long-chain Fatty Acids as Antifungal Agents”, Appl Microbiol. 1961 November; 9(6): 538-541), which calculates a Synergy Index (SI) according the following equation:
(§6) [formula] • wherein • QA=concentration of compound A in ppm, acting alone produced an end point, • Qa=concentration of compound A in ppm, in the mixture, which produced an end point, • QB=concentration of compound B in ppm, acting alone produced an end point, and • Qb=concentration of compound B in ppm, in the mixture, which produced an end point;
(§7) In this study the end point is measured by the MIC.

Pseudomonas aeruginosa = experiment: as above
Procedure: as §1, §2, §3, §4, §5, §6, §7

Staphylococcus aureus = experiment: as above; settings: Staphylococcus aureus, butyl levulinate alone, or its concentration in the mixture with Sodium benzoate; read-out: MIC (ppm) to inhibit growth: Butyl levulinate
Procedure: as §1, §2, §3, §4, §5, §6, §7

Candida albicans = experiment: as above
Procedure: as §1, §2, §3, §4, §7

[3] = pH 7, Butyl Levulinate 500 ppm, Potassium Sorbate 0 ppm
[4] = pH 7, Butyl Levulinate 1000 ppm, Potassium Sorbate 0 ppm
[5] = pH 7, Butyl Levulinate 1500 ppm, Potassium Sorbate 0 ppm
[6] = pH 7, Butyl Levulinate 1500 ppm, Sodium Benzoate 0 ppm
[7] = pH 7, Butyl Levulinate 2000 ppm, Potassium Sorbate 0 ppm
[8] = pH 7, Butyl Levulinate 2000 ppm, Sodium Benzoate 0 ppm
[9] = pH 7, Butyl Levulinate 2500 ppm, Potassium Sorbate 0 ppm
[10] = pH 7, Butyl Levulinate 2500 ppm, Sodium Benzoate 0 ppm
[11] = pH 8, Butyl Levulinate 500 ppm, Sodium Benzoate 0 ppm
[12] = pH 8, Butyl Levulinate 1000 ppm, Sodium Benzoate 0 ppm
[13] = pH 8, Butyl Levulinate 1500 ppm, Sodium Benzoate 0 ppm
[14] = pH 8, Butyl Levulinate 2000 ppm, Sodium Benzoate 0 ppm
[15] = pH 8, Butyl Levulinate 2500 ppm, Sodium Benzoate 0 ppm
[16] = butyl levulinate alone, or its concentration in the mixture with DHA
[17] = butyl levulinate alone, or its concentration in the mixture with Sodium pyrithione

MIC (Escherichia coli; Escherichia coli, butyl levulinate alone, or its concentration in the mixture with Sodium benzoate, read-out: MIC (ppm) to inhibit growth: Butyl levulinate): 3120 µg/mL
MIC (ppm) to inhibit growth: Butyl levulinate (Escherichia coli; [16]): 3125 ppm
MIC (Pseudomonas aeruginosa; Pseudomonas aeruginosa, butyl levulinate alone, or its concentration in the mixture with Lactic Acid, read-out: MIC (ppm) to inhibit growth: Butyl levulinate): 6250 µg/mL
MIC (ppm) to inhibit growth: Butyl levulinate (Pseudomonas aeruginosa; butyl levulinate alone, or its concentration in the mixture with MGDA): 6250 ppm
MIC (ppm) to inhibit growth: Butyl levulinate (Pseudomonas aeruginosa; [17]): 6250 ppm
MIC (Staphylococcus aureus): 25000 µg/mL
MIC (Candida albicans; Candida albicans, butyl levulinate alone, or its concentration in the mixture with Sodium benzoate, read-out: MIC (ppm) to inhibit growth: Butyl levulinate): 6250 µg/mL
MIC (ppm) to inhibit growth: Butyl levulinate (Candida albicans; butyl levulinate alone, or its concentration in the mixture with BIT): 6250 ppm
MIC (ppm) to inhibit growth: Butyl levulinate (Candida albicans; [16]): 6250 ppm
MIC (ppm) to inhibit growth: Butyl levulinate (Candida albicans; butyl levulinate alone, or its concentration in the mixture with HPNO): 6250 ppm
MIC (ppm) to inhibit growth: Butyl levulinate (Candida albicans; butyl levulinate alone, or its concentration in the mixture with PHMB): 6250 ppm
MIC (ppm) to inhibit growth: Butyl levulinate (Candida albicans; butyl levulinate alone, or its concentration in the mixture with Potassium Sorbate): 6250 ppm
MIC (ppm) to inhibit growth: Butyl levulinate (Candida albicans; [17]): 6250 ppm
Structure (SMILES): CCCCOC(=O)CCC(C)=O [Butyl Levulinate, butyl levulinate]
Log reduction [1, 3]: <0.03
Log reduction [1, 4]: <0.03
Log reduction [1, 5]: <0.03
Log reduction [1, 6]: <0.38
Log reduction [1, 7]: <0.03
Log reduction [1, 8]: <0.38
Log reduction [1, 9]: <0.03
Log reduction [1, 10]: <0.38
Log reduction ([1]; pH 8, Butyl Levulinate 500 ppm, Potassium Sorbate 0 ppm): <0.33
Log reduction [1, 11]: <0.05
Log reduction ([1]; pH 8, Butyl Levulinate 1000 ppm, Potassium Sorbate 0 ppm): <0.33
Log reduction [1, 12]: <0.05
Log reduction ([1]; pH 8, Butyl Levulinate 1500 ppm, Potassium Sorbate 0 ppm): <0.33
Log reduction [1, 13]: <0.05
Log reduction ([1]; pH 8, Butyl Levulinate 2000 ppm, Potassium Sorbate 0 ppm): <0.33
Log reduction [1, 14]: <0.05
Log reduction ([1]; pH 8, Butyl Levulinate 2500 ppm, Potassium Sorbate 0 ppm): <0.33
Log reduction [1, 15]: <0.05
Log reduction ([2]; pH 7, Butyl Levulinate 500 ppm, IPBC 0 ppm): 0.61
Log reduction [2, 3]: 0.10
Log reduction ([2]; pH 7, Butyl Levulinate 500 ppm, Sodium Benzoate 0 ppm): 1.90
Log reduction ([2]; pH 7, Butyl Levulinate 1000 ppm, IPBC 0 ppm): 0.60
Log reduction [2, 4]: 0.10
Log reduction ([2]; pH 7, Butyl Levulinate 1000 ppm, Sodium Benzoate 0 ppm): 1.82
Log reduction ([2]; pH 7, Butyl Levulinate 1500 ppm, IPBC 0 ppm): 0.74
Log reduction [2, 5]: 0.31
Log reduction [2, 6]: 1.85
Log reduction ([2]; pH 7, Butyl Levulinate 2000 ppm, IPBC 0 ppm): 0.70
Log reduction [2, 7]: −0.01
Log reduction [2, 8]: 2.01
Log reduction ([2]; pH 7, Butyl Levulinate 2500 ppm, IPBC 0 ppm): 0.72
Log reduction [2, 9]: 0.18
Log reduction [2, 10]: 1.80
Log reduction [2, 11]: 0.64
Log reduction [2, 12]: 0.36
Log reduction [2, 13]: 0.36
Log reduction [2, 14]: 0.38
Log reduction [2, 15]: 0.33
